Test results taken from patent publication US4988681A, “Phosphinic acid derivatives” (Banyu Pharmaceutical Co., Ltd., priority 1988, dated 1991).

Assay: Effect on urinary recovery of carbapenem (imipenem) in rats
Format: in vivo, Male SD rats
Settings: urine up to 8 hours, n = 3
Procedure: (2) Effect on urinary recovery of carbapenem
Male SD rats (8 week-old) were grouped, three per group. Imipenem alone was intravenously administered in a dose of 10 mg/kg to a first group. […] For comparison, a combination of imipenem (10 mg/kg) and cilastatin (10 mg/kg) was intravenously administered to a fourth group.
The urinary recovery of imipenem was calculated.

With CC(C)CP(=O)(O)C/C(=C\C1CCCCC1)C(=O)O [Compound No. 2, (Z)-3-cyclohexyl-2-(hydroxyisobutylphosphinoyl)methylpropenoic acid] the “Urinary recovery of imipenem, Mean ± S.D.” value (inhibitor 10 mg/kg iv with imipenem 10 mg/kg iv) was 95.3 ± 6.1% and the “Urinary recovery of imipenem, Mean ± S.D.” value (inhibitor 10 mg/kg po 30 minutes before imipenem 10 mg/kg iv) was 52.1 ± 4.9%.
